Data: US20080207573A1, “COMPOUNDS FOR TREATING VIRAL INFECTIONS” (priority 2006, published 2008)

System: HIV-1 laboratory strain, NL4-3
Assay: MT-4 Cytoprotection Assay (protection from HIV-induced cytopathic effect, WST-1 readout)
Format: cell-based
Details: Human immunodeficiency virus 1, NL43, MT4; Table 7; MT-4 cells, HIV-1 NL4-3; read-out: MT4 EC50
Experimental: MT-4 Cytoprotection Assay
The HTLV-1 transformed T cell line, MT-4, is highly susceptible to HIV-1 infection. Anti-HIV-1 agents were evaluated in this target cell line by protection from the HIV-induced cytopathic effect. In this assay, viability of both HIV-1 and mock-infected cells was assessed in a […] assay that monitors the ability of metabolically-active cells to reduce the tetrazolium salt WST-1. Cytoprotection by antiviral compounds is indicated by the positive readout of increased WST-1 cleavage.
Briefly, exponentially growing MT-4 cells were mock-infected or batch-infected with the HIV-1 laboratory strain, NL4-3, at a multiplicity of infection of 0.0005. Following a two hour infection, the cells were washed to remove unbound virus and plated in the presence of increasing concentrations of compound. After four days incubation, cytoprotection in the infected cells and compound toxicity in mock-infected cells were analyzed using the WST-1 assay.

Compound	EC50 [nM]
C=C(C)[C@@H]1CC[C@]2(C(=O)NCc3ccc(C(=O)O)s3)CC[C@]3(C)C(CCC4[C@@]5(C)CCC(OC(=O)CC(C)(C)C(=O)O)C(C)(C)C5CC[C@]43C)C12 (some centres unmarked) [Compound 129]	371
C=C(C)[C@@H]1CC[C@]2(C(=O)Nc3cccc4cccnc34)CC[C@]3(C)C(CCC4[C@@]5(C)CCC(OC(=O)CC(C)(C)C(=O)O)C(C)(C)C5CC[C@]43C)C12 (some centres unmarked) [Compound 127]	3100

Same assay, conditions: Human immunodeficiency virus 1, NL43; list of representative compounds; read-out: EC50 of less than about 100 nm (representative compounds)

Compound	EC50 [nM]
C=C(C)[C@@H]1CC[C@]2(C(=O)NCc3ccoc3)CC[C@]3(C)[C@H](CC[C@@H]4[C@@]5(C)CC[C@H](OC(=O)CC(C)(C)C(=O)O)C(C)(C)[C@@H]5CC[C@]43C)[C@@H]12 [Compound 95]	< 100
C=C(C)[C@@H]1CC[C@]2(C(=O)NCc3ccc4c(c3)OCCO4)CC[C@]3(C)[C@H](CC[C@@H]4[C@@]5(C)CC[C@H](OC(=O)CC(C)(C)C(=O)O)C(C)(C)[C@@H]5CC[C@]43C)[C@@H]12 [Compound 84]	< 100
C=C(C)[C@@H]1CC[C@]2(C(=O)N[C@@H](C)c3ccc(OC)cc3)CC[C@]3(C)[C@H](CC[C@@H]4[C@@]5(C)CC[C@H](OC(=O)CC(C)(C)C(=O)O)C(C)(C)[C@@H]5CC[C@]43C)[C@@H]12 [Compound 117]	< 100
C=C(C)[C@@H]1CC[C@]2(C(=O)NCCc3cccnc3)CC[C@]3(C)[C@H](CC[C@@H]4[C@@]5(C)CC[C@H](OC(=O)CC(C)(C)C(=O)O)C(C)(C)[C@@H]5CC[C@]43C)[C@@H]12 [Compound 93]	< 100
C=C(C)[C@@H]1CC[C@]2(C(=O)NCc3ncccc3C)CC[C@]3(C)[C@H](CC[C@@H]4[C@@]5(C)CC[C@H](OC(=O)CC(C)(C)C(=O)O)C(C)(C)[C@@H]5CC[C@]43C)[C@@H]12 [Compound 113]	< 100
C=C(C)[C@@H]1CC[C@]2(C(=O)NCc3ccc4occc4c3)CC[C@]3(C)[C@H](CC[C@@H]4[C@@]5(C)CC[C@H](OC(=O)CC(C)(C)C(=O)O)C(C)(C)[C@@H]5CC[C@]43C)[C@@H]12 [Compound 87]	< 100
C=C(C)[C@@H]1CC[C@]2(C(=O)NCCc3ccccn3)CC[C@]3(C)[C@H](CC[C@@H]4[C@@]5(C)CC[C@H](OC(=O)CC(C)(C)C(=O)O)C(C)(C)[C@@H]5CC[C@]43C)[C@@H]12 [Compound 92]	< 100
C=C(C)[C@@H]1CC[C@]2(C(=O)NCc3cccc(OC)c3)CC[C@]3(C)[C@H](CC[C@@H]4[C@@]5(C)CC[C@H](OC(=O)CC(C)(C)C(=O)O)C(C)(C)[C@@H]5CC[C@]43C)[C@@H]12 [Compound 79]	< 100
C=C(C)[C@@H]1CC[C@]2(C(=O)NCc3ccc(N(C)C)cc3)CC[C@]3(C)[C@H](CC[C@@H]4[C@@]5(C)CC[C@H](OC(=O)CC(C)(C)C(=O)O)C(C)(C)[C@@H]5CC[C@]43C)[C@@H]12 [Compound 99]	< 100
C=C(C)[C@@H]1CC[C@]2(C(=O)NCc3ccc(Cl)cc3)CC[C@]3(C)[C@H](CC[C@@H]4[C@@]5(C)CC[C@H](OC(=O)CC(C)(C)C(=O)O)C(C)(C)[C@@H]5CC[C@]43C)[C@@H]12 [Compound 80]	< 100
C=C(C)[C@@H]1CC[C@]2(C(=O)NCc3cccc4ccccc34)CC[C@]3(C)[C@H](CC[C@@H]4[C@@]5(C)CC[C@H](OC(=O)CC(C)(C)C(=O)O)C(C)(C)[C@@H]5CC[C@]43C)[C@@H]12 [Compound 94]	< 100
C=C(C)[C@@H]1CC[C@]2(C(=O)NCCc3ccc(C(=O)O)cc3)CC[C@]3(C)[C@H](CC[C@@H]4[C@@]5(C)CC[C@H](OC(=O)CC(C)(C)C(=O)O)C(C)(C)[C@@H]5CC[C@]43C)[C@@H]12 [Compound 100]	< 100
C=C(C)[C@@H]1CC[C@]2(C(=O)NC(Cc3ccccc3)C(=O)O)CC[C@]3(C)[C@H](CC[C@@H]4[C@@]5(C)CC[C@H](OC(=O)CC(C)(C)C(=O)O)C(C)(C)[C@@H]5CC[C@]43C)[C@@H]12 (some centres unmarked) [Compound 115]	< 100
C=C(C)[C@@H]1CC[C@]2(C(=O)Nc3ccc(OC)cc3)CC[C@]3(C)[C@H](CC[C@@H]4[C@@]5(C)CC[C@H](OC(=O)CC(C)(C)C(=O)O)C(C)(C)[C@@H]5CC[C@]43C)[C@@H]12 [Compound 77]	< 100
C=C(C)[C@@H]1CC[C@]2(C(=O)NCCCc3ccc(OC)cc3)CC[C@]3(C)[C@H](CC[C@@H]4[C@@]5(C)CC[C@H](OC(=O)CC(C)(C)C(=O)O)C(C)(C)[C@@H]5CC[C@]43C)[C@@H]12 [Compound 104]	< 100
C=C(C)[C@@H]1CC[C@]2(C(=O)NCc3nc4ccccc4[nH]3)CC[C@]3(C)[C@H](CC[C@@H]4[C@@]5(C)CC[C@H](OC(=O)CC(C)(C)C(=O)O)C(C)(C)[C@@H]5CC[C@]43C)[C@@H]12 [Compound 110]	< 100
C=C(C)[C@@H]1CC[C@]2(C(=O)NCc3cc(OC)c(OC)c(OC)c3)CC[C@]3(C)[C@H](CC[C@@H]4[C@@]5(C)CC[C@H](OC(=O)CC(C)(C)C(=O)O)C(C)(C)[C@@H]5CC[C@]43C)[C@@H]12 [Compound 103]	< 100

Compound	EC50 [nM]
C=C(C)[C@@H]1CC[C@]2(C(=O)NCc3ccco3)CC[C@]3(C)[C@H](CC[C@@H]4[C@@]5(C)CC[C@H](OC(=O)CC(C)(C)C(=O)O)C(C)(C)[C@@H]5CC[C@]43C)[C@@H]12 [Compound 74]	< 100
C=C(C)[C@@H]1CC[C@]2(C(=O)NCc3c(C)coc3C(F)(F)F)CC[C@]3(C)[C@H](CC[C@@H]4[C@@]5(C)CC[C@H](OC(=O)CC(C)(C)C(=O)O)C(C)(C)[C@@H]5CC[C@]43C)[C@@H]12 [Compound 101]	< 100
CC(C)[C@@H]1CC[C@]2(C(=O)NCC3CCCO3)CC[C@]3(C)[C@H](CC[C@@H]4[C@@]5(C)CC[C@H](OC(=O)CC(C)(C)C(=O)O)C(C)(C)[C@@H]5CC[C@]43C)[C@@H]12 (some centres unmarked) [Compound 123]	< 100
C=C(C)[C@@H]1CC[C@]2(C(=O)N[C@H](C)c3ccc(OC)cc3)CC[C@]3(C)[C@H](CC[C@@H]4[C@@]5(C)CC[C@H](OC(=O)CC(C)(C)C(=O)O)C(C)(C)[C@@H]5CC[C@]43C)[C@@H]12 [Compound 81]	< 100
C=C(C)[C@@H]1CC[C@]2(C(=O)NCc3cc(C)ccn3)CC[C@]3(C)[C@H](CC[C@@H]4[C@@]5(C)CC[C@H](OC(=O)CC(C)(C)C(=O)O)C(C)(C)[C@@H]5CC[C@]43C)[C@@H]12 [Compound 112]	< 100
C=C(C)[C@@H]1CC[C@]2(C(=O)NC(Cc3ccc(OC)cc3)C(=O)O)CC[C@]3(C)[C@H](CC[C@@H]4[C@@]5(C)CC[C@H](OC(=O)CC(C)(C)C(=O)O)C(C)(C)[C@@H]5CC[C@]43C)[C@@H]12 (some centres unmarked) [Compound 119]	< 100
C=C(C)[C@@H]1CC[C@]2(C(=O)NCc3ccc4c(c3)OCO4)CC[C@]3(C)[C@H](CC[C@@H]4[C@@]5(C)CC[C@H](OC(=O)CC(C)(C)C(=O)O)C(C)(C)[C@@H]5CC[C@]43C)[C@@H]12 [Compound 82]	< 100
C=C(C)[C@@H]1CC[C@]2(C(=O)NCc3ccc(Cl)cn3)CC[C@]3(C)[C@H](CC[C@@H]4[C@@]5(C)CC[C@H](OC(=O)CC(C)(C)C(=O)O)C(C)(C)[C@@H]5CC[C@]43C)[C@@H]12 [Compound 114]	< 100
C=C(C)[C@@H]1CC[C@]2(C(=O)NCCc3cccc(OC)c3)CC[C@]3(C)[C@H](CC[C@@H]4[C@@]5(C)CC[C@H](OC(=O)CC(C)(C)C(=O)O)C(C)(C)[C@@H]5CC[C@]43C)[C@@H]12 [Compound 88]	< 100
C=C(C)[C@@H]1CC[C@]2(C(=O)NCCC3CCCCC3)CC[C@]3(C)[C@H](CC[C@@H]4[C@@]5(C)CC[C@H](OC(=O)CC(C)(C)C(=O)O)C(C)(C)[C@@H]5CC[C@]43C)[C@@H]12 [Compound 124]	< 100
C=C(C)[C@@H]1CC[C@]2(C(=O)NCc3ccncc3)CC[C@]3(C)[C@H](CC[C@@H]4[C@@]5(C)CC[C@H](OC(=O)CC(C)(C)C(=O)O)C(C)(C)[C@@H]5CC[C@]43C)[C@@H]12 [Compound 75]	< 100
C=C(C)[C@@H]1CC[C@]2(C(=O)NC(C)c3ccccn3)CC[C@]3(C)[C@H](CC[C@@H]4[C@@]5(C)CC[C@H](OC(=O)CC(C)(C)C(=O)O)C(C)(C)[C@@H]5CC[C@]43C)[C@@H]12 (some centres unmarked) [Compound 105]	< 100
C=C(C)[C@@H]1CC[C@]2(C(=O)NCc3ccc(OC)cc3)CC[C@]3(C)[C@H](CC[C@@H]4[C@@]5(C)CC[C@H](OC(=O)CC(C)(C)C(=O)O)C(C)(C)[C@@H]5CC[C@]43C)[C@@H]12 [Compound 69]	< 100
C=C(C)[C@@H]1CC[C@]2(C(=O)NCc3ccccc3OC)CC[C@]3(C)[C@H](CC[C@@H]4[C@@]5(C)CC[C@H](OC(=O)CC(C)(C)C(=O)O)C(C)(C)[C@@H]5CC[C@]43C)[C@@H]12 [Compound 78]	< 100
C=C(C)[C@@H]1CC[C@]2(C(=O)NC(C(=O)O)c3ccc(OC)cc3)CC[C@]3(C)[C@H](CC[C@@H]4[C@@]5(C)CC[C@H](OC(=O)CC(C)(C)C(=O)O)C(C)(C)[C@@H]5CC[C@]43C)[C@@H]12 (some centres unmarked) [Compound 120]	< 100
C=C(C)[C@@H]1CC[C@]2(C(=O)NCc3nc4ccccc4s3)CC[C@]3(C)[C@H](CC[C@@H]4[C@@]5(C)CC[C@H](OC(=O)CC(C)(C)C(=O)O)C(C)(C)[C@@H]5CC[C@]43C)[C@@H]12 [Compound 106]	< 100
